# Reference: PubChem BioAssay (NCI)
# “And” between values parts separate entries of the source, which are not always exact repeats. Equal values may be shown once.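 Briefly, cells in 96-well plates were exposed to five compound concentrations for 48 h, and endpoints were estimated by linear interpolation. Abbreviation: GI50, concentration required for 50% inhibition of growth. TGI denotes the concentration required for complete inhibition of growth.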
# Experiments:
# Experiment in all cases: NCI tumour cell line growth inhibition, 48 h
# SK-MEL-28 melanoma = test system: SK-MEL-28 melanoma
# DLD-1 colon = test system: DLD-1 colon
# HT29 colon = test system: HT29 colon
# XF 498 CNS = test system: XF 498 CNS
# DMS 273 small cell lung = test system: DMS 273 small cell lung
# HS 578T breast = test system: HS 578T breast
# DMS 114 small cell lung = test system: DMS 114 small cell lung
# MDA-N = test system: MDA-N
# P388/ADR leukemia = test system: P388/ADR leukemia
# DU-145 prostate = test system: DU-145 prostate
# SN12K1 renal = test system: SN12K1 renal
# P388 leukemia = test system: P388 leukemia
# UACC-257 melanoma = test system: UACC-257 melanoma
# ACHN renal = test system: ACHN renal
# SR leukemia = test system: SR leukemia
# LXFL 529 NSCLC = test system: LXFL 529 NSCLC
# RXF-631 renal = test system: RXF-631 renal
# KM20L2 colon = test system: KM20L2 colon
# HOP-18 NSCLC = test system: HOP-18 NSCLC
# SNB-75 CNS = test system: SNB-75 CNS
# RXF 393 renal = test system: RXF 393 renal
# SNB-78 CNS = test system: SNB-78 CNS
# K-562 leukemia = test system: K-562 leukemia
# NCI-H460 lung = test system: NCI-H460 lung
# SW-620 colon = test system: SW-620 colon
# IGROV1 ovarian = test system: IGROV1 ovarian
# OVCAR-8 ovarian = test system: OVCAR-8 ovarian
# OVCAR-4 ovarian = test system: OVCAR-4 ovarian
# SF-268 CNS = test system: SF-268 CNS
# HOP-62 NSCLC = test system: HOP-62 NSCLC
# HCT-116 colon = test system: HCT-116 colon
# U251 CNS = test system: U251 CNS
# MCF7 breast = test system: MCF7 breast
# MOLT-4 leukemia = test system: MOLT-4 leukemia
# COLO 205 colon = test system: COLO 205 colon
# A549 NSCLC = test system: A549 NSCLC
# RPMI-8226 leukemia = test system: RPMI-8226 leukemia
# UACC-62 melanoma = test system: UACC-62 melanoma
# HCT-15 colon = test system: HCT-15 colon
# M19-MEL melanoma = test system: M19-MEL melanoma
# HOP-92 NSCLC = test system: HOP-92 NSCLC
# UO-31 renal = test system: UO-31 renal
# KM12 colon = test system: KM12 colon
# SK-MEL-2 melanoma = test system: SK-MEL-2 melanoma
# LOX IMVI melanoma = test system: LOX IMVI melanoma
# NCI-H23 lung = test system: NCI-H23 lung
# MALME-3M melanoma = test system: MALME-3M melanoma
# SF-295 CNS = test system: SF-295 CNS
# OVCAR-3 ovarian = test system: OVCAR-3 ovarian
# SK-OV-3 ovarian = test system: SK-OV-3 ovarian
# EKVX NSCLC = test system: EKVX NSCLC
# HCC-2998 colon = test system: HCC-2998 colon
# OVCAR-5 ovarian = test system: OVCAR-5 ovarian
# NCI-H226 lung = test system: NCI-H226 lung
# HL-60(TB) leukemia = test system: HL-60(TB) leukemia
# NCI-H522 lung = test system: NCI-H522 lung
# NCI/ADR-RES ovarian = test system: NCI/ADR-RES ovarian
# SF-539 CNS = test system: SF-539 CNS
# CCRF-CEM leukemia = test system: CCRF-CEM leukemia
# SK-MEL-5 melanoma = test system: SK-MEL-5 melanoma
# A498 renal = test system: A498 renal
# SN12C renal = test system: SN12C renal
# SNB-19 CNS = test system: SNB-19 CNS
smiles,measurement,setting,value
CC[C@]1(O)C[C@H]2CN(CCc3c([nH]c4ccccc34)[C@@](C(=O)OC)(c3cc4c(cc3OC)N(C)[C@H]3[C@@](O)(C(=O)OC)[C@H](OC(C)=O)[C@]5(CC)C=CCN6CC[C@]43[C@@H]65)C2)C1,GI50,SK-MEL-28 melanoma,7.41 pM
same,TGI,DLD-1 colon,2500 nM
same,TGI,HT29 colon,124 nM
same,TGI,XF 498 CNS,33.3 nM
same,TGI,DMS 273 small cell lung,123 nM
same,TGI,HS 578T breast,240 nM and 1370 nM
same,TGI,DMS 114 small cell lung,5.81 nM
same,TGI,MDA-N,0.25 nM and 0.771 nM
same,TGI,P388/ADR leukemia,931 nM
same,GI50,DU-145 prostate,7.48 pM
same,TGI,SN12K1 renal,2.7 nM
same,TGI,P388 leukemia,139 nM
same,TGI,UACC-257 melanoma,1890 nM and 2500 nM and 16100 nM
same,GI50,ACHN renal,0.0527 nM
same,GI50,SR leukemia,< 2.5 pM
same,TGI,LXFL 529 NSCLC,1060 nM
same,TGI,RXF-631 renal,1030 nM
same,GI50,KM20L2 colon,0.025 nM
same,TGI,KM20L2 colon,1.83 nM
same,TGI,HOP-18 NSCLC,1.51 µM
same,TGI,SNB-75 CNS,25 nM and 80.7 nM
same,GI50,RXF 393 renal,1.35 nM
same,TGI,SNB-78 CNS,1700 nM
c1ccc2c(c1)SP1Sc3ccccc3P21 (centres undefined),TGI,K-562 leukemia,> 100 µM
same,TGI,NCI-H460 lung,> 100 µM
same,TGI,SW-620 colon,> 100 µM
same,TGI,IGROV1 ovarian,> 100 µM
same,TGI,SK-MEL-28 melanoma,> 100 µM
same,TGI,DLD-1 colon,> 100000 nM
same,TGI,OVCAR-8 ovarian,> 100 µM
same,TGI,OVCAR-4 ovarian,> 100 µM
same,TGI,SF-268 CNS,> 100 µM
same,TGI,HOP-62 NSCLC,> 100 µM
same,TGI,HCT-116 colon,> 100 µM
same,TGI,HT29 colon,> 100000 nM
same,TGI,XF 498 CNS,> 100000 nM
same,TGI,DMS 273 small cell lung,> 100000 nM
same,TGI,U251 CNS,> 100 µM
same,TGI,MCF7 breast,> 100 µM
same,TGI,DMS 114 small cell lung,> 100000 nM
same,TGI,MOLT-4 leukemia,> 100 µM
same,TGI,COLO 205 colon,> 100 µM
same,TGI,A549 NSCLC,> 100 µM
same,TGI,RPMI-8226 leukemia,> 100 µM
same,TGI,P388/ADR leukemia,> 100000 nM
same,TGI,UACC-62 melanoma,> 100 µM
same,TGI,HCT-15 colon,> 100 µM
same,TGI,SN12K1 renal,> 100000 nM
same,TGI,M19-MEL melanoma,> 100 µM
same,TGI,P388 leukemia,> 100000 nM
same,TGI,HOP-92 NSCLC,> 100 µM
same,TGI,UO-31 renal,> 100 µM
same,TGI,UACC-257 melanoma,> 100000 nM
same,TGI,KM12 colon,> 100 µM
same,TGI,SK-MEL-2 melanoma,> 100 µM
same,TGI,LOX IMVI melanoma,> 100 µM
same,TGI,NCI-H23 lung,> 100 µM
same,TGI,MALME-3M melanoma,> 100 µM
same,TGI,SF-295 CNS,> 100 µM
same,TGI,OVCAR-3 ovarian,> 100 µM
same,TGI,SK-OV-3 ovarian,> 100 µM
same,TGI,EKVX NSCLC,> 100 µM
same,TGI,KM20L2 colon,> 100000 nM
same,TGI,HOP-18 NSCLC,73.1 µM
same,TGI,HCC-2998 colon,> 100 µM
same,TGI,OVCAR-5 ovarian,> 100 µM
same,TGI,SNB-75 CNS,> 100000 nM
same,TGI,NCI-H226 lung,> 66.6 µM
same,TGI,HL-60(TB) leukemia,> 100 µM
same,TGI,NCI-H522 lung,> 100 µM
same,TGI,NCI/ADR-RES ovarian,> 100 µM
same,TGI,SF-539 CNS,> 100 µM
same,TGI,CCRF-CEM leukemia,> 100 µM
same,TGI,RXF 393 renal,> 100 µM
same,TGI,SNB-78 CNS,> 100000 nM
same,TGI,SK-MEL-5 melanoma,> 100 µM
same,TGI,A498 renal,> 100 µM
same,TGI,SN12C renal,> 100 µM
same,TGI,SNB-19 CNS,> 31.6 µM
